According to US20240391882A1 (Mirati Therapeutics, Inc., priority 2023, published 2024):

Key:
Type in all cases: cell-based
[1] = test system: pAKT in T47D (PI3Kα H1047R mutant) cells; experiment: Inhibition of pAKT (alphaLISA Surefire Ultra AKT 1/2/3 pS473) in T47D cells; details: Homo sapiens; T47D (PI3Kα H1047R mutant) cells, 24 hr compound incubation, alphaLISA pS473; read-out: T47D (H1047R) pAKT 24 hr (IC50)
In short: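 Cells in HBSS were dosed from 10.4 μm (1:4 serial dilution, 10 concentrations) and incubated about 24 hours at 37° C, then lysed. pAKT S473 measured by alphaLISA after overnight bead incubation. Signal normalised to alpelisib (3.125 μm) and DMSO controls; IC50 from four-parameter fit.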

[2] = test system: T47D (PI3Kα H1047R mutant) cells; experiment: Cell viability (CellTiter-Glo 2.0) in T47D cells; details: Homo sapiens, T47D, 72 h, approximately 72 hours
In short: (§1)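 SKBR3 or T47D cells, 1000 per well, were seeded overnight and then exposed ~72 h at 37° C to 10 concentrations of compound, 1:4 dilutions from 10 μm. Viability read by CellTiter-Glo luminescence as percent of vehicle; IC50 from four-parameter variable-slope fit.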

[3] = test system: SKBR3 (PI3Kα wild type) cells; experiment: Cell viability (CellTiter-Glo 2.0) in SKBR3 cells; details: Homo sapiens, SK-BR-3; SKBR3 (PI3Kα wild type) cells, approximately 72 hours, CellTiter-Glo 2.0; read-out: SKBR3 (WT) Viability IC50
In short: as §1

IC50 [1] [µM] | IC50 [2] [µM] | IC50 [3] [µM] | SMILES
0.02 | 1.03 | > 10 | Cc1cc([C@@H](C)Nc2ccc(Cl)nc2C(=O)O)c2nc(-c3ccc(=O)n(C)c3)c(C#N)nc2c1 [Example 223, (R)-6-chloro-3-((1-(2-cyano-7-methyl-3-(1-methyl-6-oxo-1,6-dihydropyridin-3-yl)quinoxalin-5-yl)ethyl)amino)picolinic acid]
0.0216 | 0.422 | > 10 | Cc1cc([C@@H](C)Nc2ccccc2C(=O)O)c2nc(N3CC(C)(C)C3)c(C#N)nc2c1 [Example 55, (R)-2-((1-(2-cyano-3-(3,3-dimethylazetidin-1-yl)-7-methylquinoxalin-5-yl)ethyl)amino)benzoic acid]
0.0173 | 0.764 | > 10 | Cc1cc([C@@H](C)Nc2ccc(Cl)nc2C(=O)O)c2nc(N3CCO[C@@H](C(F)(F)F)C3)c(C#N)nc2c1 [Example 190B, 6-chloro-3-(((R)-1-(2-cyano-7-methyl-3-((R)-2-(trifluoromethyl)morpholino)quinoxalin-5-yl)ethyl)amino)picolinic acid]
0.0028 | 0.073 | > 10 | Cc1cc([C@@H](C)Nc2ccc(Cl)nc2C(=O)O)c2nc(N3CCC(F)(F)[C@@H](CO)C3)c(C#N)nc2c1 (single isomer, unassigned) [Example 234A]
0.0018 | 0.0515 | 9.8 | C[C@@H](Nc1ccc(Cl)nc1C(=O)O)c1cc(F)cc2nc(C#N)c(N3CCC(F)(F)CC3)nc12 [Example 26, (R)-6-chloro-3-((1-(2-cyano-3-(4,4-difluoropiperidin-1-yl)-7-fluoroquinoxalin-5-yl)ethyl)amino)picolinic acid]
0.0005 | 0.0321 | > 10 | Cc1cc([C@@H](C)Nc2ccc(Cl)nc2C(=O)O)c2nc(N3CC4C(C3)C4(F)F)c(C#N)nc2c1 (stereo partly drawn) [Example 21, 6-chloro-3-(((1R)-1-(2-cyano-3-(6,6-difluoro-3-azabicyclo[3.1.0]hexan-3-yl)-7-methylquinoxalin-5-yl)ethyl)amino)picolinic acid]
0.0014 | 0.0764 | 9.93 | Cc1cc([C@@H](C)Nc2ccc(Cl)nc2C(=O)O)c2nc(N3CCC(N4CCCCC4=O)CC3)c(C#N)nc2c1 [Example 202, (R)-6-chloro-3-((1-(2-cyano-7-methyl-3-(2-oxo-[1,4′-bipiperidin]-1′-yl)quinoxalin-5-yl)ethyl)amino)picolinic acid]
0.00088 | 0.147 | > 10 | Cc1cc([C@@H](C)Nc2ccc(Cl)nc2C(=O)O)c2nc(N3CCc4c(ccn(C)c4=O)C3)c(C#N)nc2c1 [Example 221, (R)-6-chloro-3-((1-(2-cyano-7-methyl-3-(6-methyl-5-oxo-3,4,5,6-tetrahydro-2,6-naphthyridin-2(1H)-yl)quinoxalin-5-yl)ethyl)amino)picolinic acid]
0.052 | 0.701 | > 10 | Cc1cc([C@@H](C)Nc2ccccc2C(=O)O)c2nc(NC[C@]3(C)CC3(F)F)c(C#N)nc2c1 (single isomer, unassigned) [Example 75A]
1.14 | > 10 | > 10 | C[C@H](Nc1ccccc1C(=O)O)c1cc(C#N)cc2nc(C#N)c(N3CCC(F)(F)CC3)nc12 [Example 27, (S)-2-((1-(2,7-dicyano-3-(4,4-difluoropiperidin-1-yl)quinoxalin-5-yl)ethyl)amino)benzoic acid]
0.0035 | 0.117 | > 10 | Cc1cc([C@@H](C)Nc2ccc(Cl)nc2C(=O)O)c2nc(N3C[C@@H](C)OC[C@@H]3C)c(C#N)nc2c1 [Example 238B, 6-chloro-3-(((R)-1-(2-cyano-3-((2R,5S)-2,5-dimethylmorpholino)-7-methylquinoxalin-5-yl)ethyl)amino)picolinic acid]
0.0165 | 0.254 | 9.81 | COC1(C)CN(c2nc3c([C@@H](C)Nc4ccccc4C(=O)O)cc(C)cc3nc2C#N)C1 [Example 63, (R)-2-((1-(2-cyano-3-(3-methoxy-3-methylazetidin-1-yl)-7-methylquinoxalin-5-yl)ethyl)amino)benzoic acid]
0.0019 | 0.0793 | 5.32 | Cc1cc([C@@H](C)Nc2ccc(Cl)nc2C(=O)O)c2nc(N3CCC4(CC4)C(F)(F)C3)c(C#N)nc2c1 [Example 22, (R)-6-chloro-3-((1-(2-cyano-3-(4,4-difluoro-6-azaspiro[2.5]octan-6-yl)-7-methylquinoxalin-5-yl)ethyl)amino)picolinic acid]
0.00047 | 0.0841 | > 10 | CO[C@H](C)C1CCN(c2nc3c([C@@H](C)Nc4ccc(Cl)nc4C(=O)O)cc(C)cc3nc2C#N)CC1 (single isomer, unassigned) [Example 195A]
0.0062 | 0.0482 | > 10 | C[C@@H](Nc1ccc(Cl)nc1C(=O)O)c1cc(Cl)cc2nc(C#N)c(N3CCC(F)(F)CC3)nc12 [Example 34, (R)-6-chloro-3-((1-(7-chloro-2-cyano-3-(4,4-difluoropiperidin-1-yl)quinoxalin-5-yl)ethyl)amino)picolinic acid]
0.039 | 0.72 | > 10 | Cc1cc([C@@H](C)Nc2ccccc2C(=O)O)c2nc(NC[C@@]3(C)CC3(F)F)c(C#N)nc2c1 (single isomer, unassigned) [Example 75B]
0.00027 | 0.0105 | 7.81 | Cc1cc([C@@H](C)Nc2ccc(Cl)nc2C(=O)O)c2nc(N3CCN(c4cc(C)on4)CC3)c(C#N)nc2c1 [Example 201, (R)-6-chloro-3-((1-(2-cyano-7-methyl-3-(4-(5-methylisoxazol-3-yl)piperazin-1-yl)quinoxalin-5-yl)ethyl)amino)picolinic acid]
0.0386 | 0.513 | > 10 | Cc1cc([C@@H](C)Nc2ccccc2C(=O)O)c2nc(N3CCC(C)(C)CC3)c(C#N)nc2c1 [Example 61, (R)-2-((1-(2-cyano-3-(4,4-dimethylpiperidin-1-yl)-7-methylquinoxalin-5-yl)ethyl)amino)benzoic acid]
0.0011 | 0.011 | > 10 | Cc1cc([C@@H](C)Nc2ccc(Cl)nc2C(=O)O)c2nc(N3CC4(CCOC4)C3)c(C#N)nc2c1 [Example 251, (R)-6-chloro-3-((1-(2-cyano-7-methyl-3-(6-oxa-2-azaspiro[3.4]octan-2-yl)quinoxalin-5-yl)ethyl)amino)picolinic acid]
0.0007 | 0.0619 | > 10 | Cc1cc([C@@H](C)Nc2ccc(Cl)nc2C(=O)O)c2nc(NCC3(F)CC3)c(C#N)nc2c1 [Example 23, (R)-6-chloro-3-((1-(2-cyano-3-(((1-fluorocyclopropyl)methyl)amino)-7-methylquinoxalin-5-yl)ethyl)amino)picolinic acid]
0.014 | 0.165 | > 10 | Cc1cc([C@@H](C)Nc2ccccc2C(=O)O)c2nc(N3CCOCC3)c(C#N)nc2c1 [Example 57, (R)-2-((1-(2-cyano-7-methyl-3-morpholinoquinoxalin-5-yl)ethyl)amino)benzoic acid]
0.0004 | 0.022 | 7.26 | Cc1cc([C@@H](C)Nc2ccc(Cl)nc2C(=O)O)c2nc(N3CCO[C@H]4C[C@H]43)c(C#N)nc2c1 (single isomer, unassigned) [Example 239B]
0.0036 | 0.085 | > 10 | Cc1cc([C@@H](C)Nc2ccc(Cl)nc2C(=O)O)c2nc(N3CCC(F)(F)[C@H](CO)C3)c(C#N)nc2c1 (single isomer, unassigned) [Example 234B]
0.0012 | 0.037 | 4.89 | Cc1cc([C@@H](C)Nc2ccc(Cl)nc2C(=O)O)c2nc(N3CCC4(CCO4)CC3)c(C#N)nc2c1 [Example 250, (R)-6-chloro-3-((1-(2-cyano-7-methyl-3-(1-oxa-7-azaspiro[3.5]nonan-7-yl)quinoxalin-5-yl)ethyl)amino)picolinic acid]
0.0104 | 0.216 | > 10 | Cc1cc([C@@H](C)Nc2ccc(Cl)nc2C(=O)O)c2nc(N3C[C@H](C)OC[C@H]3C)c(C#N)nc2c1 [Example 238A, 6-chloro-3-(((R)-1-(2-cyano-3-((2S,5R)-2,5-dimethylmorpholino)-7-methylquinoxalin-5-yl)ethyl)amino)picolinic acid]
0.0047 | 0.183 | > 10 | C[C@@H](Nc1ccccc1C(=O)O)c1cc(Cl)cc2nc(C#N)c(N3CCC(F)(F)CC3)nc12 [Example 30, (R)-2-((1-(7-chloro-2-cyano-3-(4,4-difluoropiperidin-1-yl)quinoxalin-5-yl)ethyl)amino)benzoic acid]
0.0102 | 0.265 | > 10 | C[C@@H](Nc1ccccc1C(=O)O)c1cc(F)cc2nc(C#N)c(N3CCC(F)(F)CC3)nc12 [Example 32, (R)-2-((1-(2-cyano-3-(4,4-difluoropiperidin-1-yl)-7-fluoroquinoxalin-5-yl)ethyl)amino)benzoic acid]
